These results are taken from US9820487B2, “Abscinazole” (NATIONAL UNIVERSITY CORPORATION SHIZUOKA UNIVERSITY, priority 2014, dated 2017).

For series [1], the target named is T1, ent-kaurene oxidase CYP701A6 (Oryza sativa subsp. japonica, UniProt Q5Z5R4).
T1 sequence (Q5Z5R4 1-505): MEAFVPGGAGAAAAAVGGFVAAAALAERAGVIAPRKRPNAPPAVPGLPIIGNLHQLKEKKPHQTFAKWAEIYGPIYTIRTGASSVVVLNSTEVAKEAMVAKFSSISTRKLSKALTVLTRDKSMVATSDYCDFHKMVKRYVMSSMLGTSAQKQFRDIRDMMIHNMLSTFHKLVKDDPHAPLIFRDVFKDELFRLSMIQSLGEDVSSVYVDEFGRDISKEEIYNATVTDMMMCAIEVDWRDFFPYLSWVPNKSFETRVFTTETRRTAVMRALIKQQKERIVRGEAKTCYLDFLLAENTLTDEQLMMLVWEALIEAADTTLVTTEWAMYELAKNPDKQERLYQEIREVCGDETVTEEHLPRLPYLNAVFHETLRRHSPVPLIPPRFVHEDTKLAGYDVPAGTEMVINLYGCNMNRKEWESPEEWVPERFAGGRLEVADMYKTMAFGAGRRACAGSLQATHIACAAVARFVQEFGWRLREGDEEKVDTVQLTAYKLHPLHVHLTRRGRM
The series can be described thus: Ent-kaurene oxidase CYP701A6 inhibition test. The series is classed as biochemical. As to conditions: CYP701A6 + NADPH-P450 reductase ATR2, substrate ent-kaurene, 30° C. 30 minutes; IC50 calculated from two concentrations. How it is done:
To a 1.5 mL microtube, 8 μL of an aqueous solution of 500 μM ent-kaurene as a substrate in 45% cyclodextrin and 8μL of a solution of the sample in dimethylformamide were put. 10 μL of 2.32 μM ent-kaurene oxidase CYP701A6 and 10 μL of 4.6 unit/mL NADPH-P450 reductase ATR2, heated at 30° C. for 5 minutes in advance, were added thereto. 304 μL of ultra-pure water, 40 μL of 500 mM KPB and 20 μL of an aqueous solution of 20 mM NADPH, heated at 30° C. for 10 minutes in advance, were added thereto thereby starting the enzyme reaction. The reaction was carried out at 30° C. for 30 minutes at a rotation speed of 1000 rpm and 100 μL of 1 M hydrochloric acid was added thereto thereby terminating the reaction. 5 μL of 10 μM abietic acid as the internal standard was added thereto, and the solution was extracted with 400 μL of ethyl acetate. The resultant was dried over sodium sulfate and subsequently concentrated under reduced pressure. 50 μL of methanol and 5 μL of 2 M trimethyl silyldiazomethane were added thereto to methylate carboxylic acid and the resultant was thy-solidified using nitrogen. The solidified product was dissolved in 150 μL of hexane and 1 μL of the resultant solution was subjected to a GC-MS analysis to detect the enzyme metabolite ent-kaurene acid. The CYP701A6 inhibition rate of the samples was calculated in accordance with the following formula (4). Note that the peak area of ent-kaurene acid was calculated from the peak area of m/z 273 and that ent-kaurene acid was identified from the area ratio of m/z 257, 213. The peak area of abietic acid was calculated from the area of m/z 256, and abietic acid was identified from the area ratio of m/z 316. Note that dimethylformamide was used for the control in place of the sample solution. Each sample was tested with two different concentrations to act late the 50% inhibition concentration (IC50) based on the enzyme inhibition rates thereof.
Enzyme inhibition rate (%)={1-(Ent-kaurene acid peak area of each sample/Abietic acid peak area of each sample/(Ent-kaurene acid peak area of control/Abietic acid peak area of control }×100 . . . (4)

For series [2], the target named is T2, abscisic acid 8′-hydroxylase CYP707A3 (Arabidopsis thaliana, UniProt Q9FH76).
T2 sequence (Q9FH76 1-463): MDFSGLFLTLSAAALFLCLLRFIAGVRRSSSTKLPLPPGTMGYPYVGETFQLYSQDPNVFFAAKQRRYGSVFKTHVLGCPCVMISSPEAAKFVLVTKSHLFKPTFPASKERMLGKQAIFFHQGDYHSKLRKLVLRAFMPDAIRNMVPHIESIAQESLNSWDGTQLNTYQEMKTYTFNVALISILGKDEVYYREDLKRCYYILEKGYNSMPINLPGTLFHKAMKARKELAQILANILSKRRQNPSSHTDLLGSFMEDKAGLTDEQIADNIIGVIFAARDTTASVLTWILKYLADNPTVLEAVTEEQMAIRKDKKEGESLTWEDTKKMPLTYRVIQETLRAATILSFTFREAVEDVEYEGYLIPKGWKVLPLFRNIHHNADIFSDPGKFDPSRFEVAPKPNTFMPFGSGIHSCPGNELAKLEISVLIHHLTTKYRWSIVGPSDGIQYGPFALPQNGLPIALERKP
The series can be described thus: Abscisic acid 8′-hydroxylase CYP707A3 inhibition test. The series is classed as biochemical. As to conditions: CYP707A3 + NADPH-P450 reductase ATR1, substrate ABA, 30° C. 10 minutes; IC50 calculated from two concentrations. On the procedure: In a 1.5 mL microtube, 10 μL of a solution of substrate 250 μM ABA in potassium/phosphate buffer (KPB), 5 μL of a solution of the sample in dimethylformamide, 435 μL of KPB and 40 μL of abscisic acid 8′-hydroxylase CYP707A3+NADPH-P450 reductase ATR1 were put and heated at 30° C. for 10 minutes. 10 μL of a solution of 5 mg/mL NADPH in KPB was added thereto thereby starting the enzyme reaction. The reaction was carried out at 30° C. for 10 minutes at a rotation speed of 1000 rpm, and 25 μL of an aqueous solution of 1 M sodium hydroxide was added thereto thereby terminating the reaction. The reaction solution was allowed to stand at 4° C. for 30 minutes and subsequently 50 μL of 1 M hydrochloric acid was added thereto to convert the enzyme metabolite to phaseic acid (PA). The enzyme reaction solution was subjected to an OASIS HLB cartridge (1 cc, 30 mg; washed with 1 mL of methanol (1% acetic acid) and equilibrated with 1 mL of water (1% acetic acid)) and washed with 1 mL of 10% methanol/water (1% acetic acid) thereby eluting phaseic acid with 1 mL of methanol (1% acetic acid). The eluate was concentrated under reduced pressure (toluene was added to azeotrope acetic acid), the obtained substance was dissolved in 50 μL of methanol. 20 μL of the solution was subjected to HPLC (column, YMC-Pack Hydrosphere C18 (6 mm inner diameter×150 mm length); flow rate 1 mL/min; detection 254 nm) analysis. The CYP707A3 inhibition rate of the samples was calculated in accordance with the following formula (3). Note that dimethylformamide was used for the control in place of the sample solution. Each sample was tested with two different concentrations to calculate the 50% inhibition concentration (IC50) based on the enzyme inhibition rates thereof The results are shown in Table 1.
Enzyme inhibition rate (%)={1-(PA peak area of each sample/PA peak area of control)}×100 . . . (3)

Series [3] has as its system seeds of thale cress (Arabidopsis thaliana, Col-0). Nature of the series: Thale cress seed germination inhibition test (2). It counts as in vivo. As to conditions: 120 hours after seed plantation (FIG. 3). How it is done:
Seeds of thale cress (Arabidopsis thaliana, Col-0) were immersed in […] an aqueous solution of 70% ethanol for 30 minutes, subsequently in 500 μL of 100% ethanol for 1 minute, washed three times in 1 mL of distilled water, then immersed in distilled water and, in a dark place, verbalized at 4° C. for 3 days. A solution of the sample in methanol and a solution of ABA in methanol were put in a 1.5 mL microtube, and methanol was removed therefrom under reduced pressure. An aqueous solution of 0.5% agar (containing 1/2 MS medium inorganic salts) at 70° C. was added thereto, followed by stirring the resultant. The obtained solution was placed in a 96-well plate to provide the medium containing the sample. 20 to 30 vernalized seeds of thale cress were planted in each well and cultured at 22° C. under continuous light to monitor the number of seeds germinated over time. The germination rate was calculated in accordance with the following formula (1). Note that the medium prepared using methanol in the same manner as above was used as an untreated control and a germination rate of 100% was achieved 72 hours later from the seed plantation. Germination rates 72 hours later from the seed plantation are shown in FIG. 1 and initial growth conditions of thale cress 120 hours later are shown in FIG. 2.
Germination rate (%)=Number of seeds germinated/Number of seeds planted×100 . . . (1) […]

Consider `CCCCOCCOCCOCc1cn(-c2ccc(/C=C(\C(O)C(C)(C)C)n3cncn3)cc2)nn1` (single isomer, unassigned) [Comparative Example 1 (+) Form, 1-(4-(4-((2-(2-butoxyethoxy)ethoxy)methyl)-1H-1,2,3-triazol-1-yl)phenyl)-4,4-dimethyl-2-(1H-1,2,4-triazol-1-yl)pent-1-en-3-ol, reference compound], for which the values for the potency estimated from few doses in series [1] and in series [2] were 1300 nM and 1100 nM, respectively.
For `CCCCOCCOCCOCc1cn(-c2ccc(/C=C(\C(O)C(C)(C)C)n3cncn3)cc2)nn1` (single isomer, unassigned) [Comparative Example 1 (−) Form, 1-(4-(4-((2-(2-butoxyethoxy)ethoxy)methyl)-1H-1,2,3-triazol-1-yl)phenyl)-4,4-dimethyl-2-(1H-1,2,4-triazol-1-yl)pent-1-en-3-ol, reference compound], the potency estimated from few doses in series [1] is 1200 nM; in series [2] it was 54 nM.
For `COCCOCCOCCOCC#Cc1cccc(/C=C(\C(O)C(C)(C)C)n2cncn2)c1` (single isomer, unassigned) [Example 1 (+) Form, (E)-1-(3-(2,5,8,11-tetraoxatetradec-13-yn-14-yl)phenyl)-4,4-dimethyl-2-(1H-1,2,4-triazol-1-yl)pent-1-en-3-ol], in that order: 1600 nM and 1200 nM.
For `CCCCOCCOCCOCC#Cc1cccc(/C=C(\C(O)C(C)(C)C)n2cncn2)c1` (single isomer, unassigned) [Example 2 (+) Form, (E)-1-(3-(3-(2-(2-butoxyethoxy)ethoxy)prop-1-yn-1-yl)phenyl)-4,4-dimethyl-2-(1H-1,2,4-triazol-1-yl)pent-1-en-3-ol], in that order: 120 nM and 240 nM.
In the case of `CCCCOCCOCCOCC#Cc1cccc(/C=C(\C(O)C(C)(C)C)n2cncn2)c1` (single isomer, unassigned) [Example 2 (−) Form, (E)-1-(3-(3-(2-(2-butoxyethoxy)ethoxy)prop-1-yn-1-yl)phenyl)-4,4-dimethyl-2-(1H-1,2,4-triazol-1-yl)pent-1-en-3-ol], in series [3], the “seed germination inhibition compared with (−) form of Comparative Example 1” value is “can inhibit the seed germination even in lower concentrations”. Also, the potency estimated from few doses in series [1] is 62 nM; in series [2], 12 nM.
On to `COCCOCCOCCOCC#Cc1ccc(/C=C(\C(O)C(C)(C)C)n2cncn2)cc1` (single isomer, unassigned) [Example 3 (+) Form, (E)-1-(4-(2,5,8,11-tetraoxatetradec-13-yn-14-yl)phenyl)-4,4-dimethyl-2-(1H-1,2,4-triazol-1-yl)pent-1-en-3-ol], for which the potency estimated from few doses in series [1] was 17000 nM; in series [2] it was 7700 nM.
For `COCCOCCOCCOCC#Cc1ccc(/C=C(\C(O)C(C)(C)C)n2cncn2)cc1` (single isomer, unassigned) [Example 3 (−) Form, (E)-1-(4-(2,5,8,11-tetraoxatetradec-13-yn-14-yl)phenyl)-4,4-dimethyl-2-(1H-1,2,4-triazol-1-yl)pent-1-en-3-ol], in that order: 8600 nM and 1500 nM.
For the molecule `CCCCOCCOCCOCC#Cc1ccc(/C=C(\C(O)C(C)(C)C)n2cncn2)cc1` (single isomer, unassigned) [Example 4 (+) Form], the potency estimated from few doses was 1500 nM in series [1] and 1000 nM in series [2].
As for `CCCCOCCOCCOCC#Cc1ccc(/C=C(\C(O)C(C)(C)C)n2cncn2)cc1` (single isomer, unassigned) [Example 4 (−) Form], the potency estimated from few doses in series [1] is 770 nM; in series [2], 200 nM.
